What was measured:
[1] = tested on: GluA1 surface expression in cultured hippocampal neurons; experiment: Surface labelling of AMPA receptor subunit GluA1 (immunocytochemistry); assay type: cell-based, Sprague Dawley rats; settings: for GluA1 surface expression, hexamer study: 10 nM, 15 min; for GluA1 surface expression, agent alone (PTEN study): bpV 50 nM, 30 min
[2] = tested on: juvenile hippocampal slices; experiment: HFS-induced synaptic plasticity and its inhibition by Aβ1-42; assay type: cell-based, Sprague Dawley rats; settings: for synaptic transmission after HFS in slices exposed to Aβ1-42: 25 nM before Aβ1-42
Description: (§1) Parasagittal hippocampal slices (300 μm) were prepared from either P13-21 or 12-24-week-old male Sprague Dawley rats as previously (Moult et al. 2010). Brains were rapidly removed and placed in ice-cold artificial CSF (aCSF; bubbled with 95% O2 and 5% CO2) containing the following (in mm): 124 NaCl, 3 KCl, 26 NaHCO3, 1.25 NaH2PO4, 2 CaCl2, 1 MgSO4, and 10 d-glucose. Once prepared, parasagittal slices were allowed to recover at room temperature in oxygenated aCSF for 1 h before use. Slices were transferred to a submerged chamber maintained at room temperature and perfused with artificial cerebrospinal fluid at 2 ml min^−1. Standard extracellular recordings were used to monitor evoked field excitatory postsynaptic potentials (fEPSP) from stratum radiatum. The Schaffer collateral-commissural pathway was stimulated (constant voltage; 0.1 ms) at 0.033 Hz, using a stimulus intensity that evoked a peak amplitude ˜50% of the maximum. Synaptic potentials were low pass filtered at 2 kHz and digitally sampled at 10 kHz. The fEPSP slope was measured and expressed relative to baseline. Synaptic records are the average of 4 consecutive responses and stimulus artefacts are blanked for clarity. Recordings were made using an Axopatch 200B amplifier and analyzed using LTP v2.4 software. In synaptic plasticity studies, the degree of potentiation was calculated 30-35 min after HFS and expressed as a percentage of baseline±standard error of mean (SEM).
Several studies indicate that soluble Aβ oligomers impair activity-dependent synaptic plasticity, as exposure to Aβ inhibits hippocampal LTP (Shankar et al. 2008; Li et al. 2009) and enhances LTD (Shankar et al. 2008). Moreover, our recent studies indicate that leptin reverses the detrimental effects of Aβ1-42 on both LTP and LTD (Doherty et al. 2013). Thus we assessed if either of the fragments mirrored the protective actions of leptin on hippocampal synaptic plasticity. Initially we determined that application of leptin prevented the acute effects of Aβ1-42 on LTP. In control slices, synaptic plasticity was induced using high frequency stimulation (HFS; 100 Hz 10 trains of 8 stimuli) which increased synaptic transmission to 127±3.4% of baseline (n=8; P<0.01).

[3] = tested on: phosphorylated tau (p-tau); experiment: ELISA of phosphorylated tau relative to α-tubulin; assay type: cell-based, human; settings: 10 nM; n=5
Description: The human neuroblastoma cell line, SH-SY5Y (ECACC, UK) was maintained in Dulbecco's Modified Eagle Medium supplemented with glucose ([…]) and 10% (v/v) cosmic calf serum (Fisher Scientific, UK) at 37° C. in a humidified atmosphere of 5% CO2, 95% air and allowed to reach 70-80% confluence before seeding. Cells (passage 10-18) were plated at 10 000 cells per well in 96 well tissue culture plates (Nunc, VWR, UK) and at a density of 2×10^5 cells in 35 mm dishes for protein extraction. To induce differentiation, cells were cultured in DMEM supplemented with glucose ([…]), 1% (v/v) cosmic calf serum and 10 μM retinoic acid for 5 days. Thereafter they were incubated in DMEM supplemented with glucose ([…]), serum replacement 2 (2%; Sigma, UK) and 18 μM 5-fluorodeoxyuridine to inhibit proliferation of undifferentiated cells. The 50% of the medium was changed every 2-3 days and pharmacological treatment was carried out 7 days after switching to this medium. Reagents used were (from Sigma UK unless stated) 0.1-10 nM human leptin and leptin (116-130); 0.1-10 nM leptin (22-56; Bachem; Switzerland); 10 nM leptin (116-121) leptin (117-122), leptin (124-129) or leptin (125-130; all Severn Biotech, UK); 5 μM copper chloride; […], 5 μM WP1066 or 50 nM wortmannin. All treatments were added to the culture at the same time and survival assays were carried out after 96 h treatment. Protein samples for signaling ELISA were extracted 3 h after exposure to the relevant reagents and for biomarker expression after 72 hours.
Protein from cultures was extracted into 500 μl Tris-buffered saline containing protease inhibitor cocktail, and a Bradford assay used to determine protein concentration. Samples were diluted to give equal loading onto ELISA plates. Commercially available ELISA kits were used in accordance with the manufacturer's instructions to determine the ratio of pan-STAT3 to phospho-STAT3 (Sigma, UK) and pan-Akt to phospho-Akt (Sigma, UK) and the levels of alpha-tubulin and phosphorylated tau (Sigma, UK). Each protein sample was run in duplicate using samples derived from at least 5 biological repeats.
Hyper-phosphorylation of tau is the underpinning mechanism of the development of neurofibrillary tangles—one of the key pathological feature of AD. Human SH-SY5Y neuronal cells were exposed to Aβ1-42 alone or in combination with 10 nM leptin, leptin (116-130), leptin (116-121), leptin (117-122), leptin (124-129) or leptin (125-130). Protein was extracted for ELISA assay and the ratio of p-tau to the house-keeping protein α-tubulin determined (FIG. 11C). […] Thus for Aβ1-42-treated cells, 10 nM leptin and 10 nM leptin (116-130) reduced p-tau expression by 56.2±8.0% and 58.9+4.6% respectively compared with Aβ1-42 alone (n=5; P<0.001; FIG. 11C); an effect that was mirrored by 10 nM leptin (116-121) and leptin (117-122); 58.1±4.0% and 45.48±6.1% (n=5; P<0.001 and P<0.01 respectively; FIG. 11C), but not by 10 nM leptin (124-129) or leptin (125-130)(n=5; P>0.5; FIG. 11C).

[4] = tested on: adult hippocampal slices (12-24 weeks); experiment: Excitatory synaptic transmission (fEPSP) in adult hippocampal slices; assay type: cell-based, Sprague Dawley rats; settings: 25 nM; 20 min; adult (12-24 weeks) slices
Description: as §1
We have shown that leptin regulation of excitatory synaptic transmission is age-dependent. Thus in contrast to its effects in juvenile tissue, leptin (25 nM) induces a novel form of LTP in adult hippocampus (Moult and Harvey 2011). In order to verify if the leptin fragments mirror leptin action in adult tissue, the effects of the leptin fragments were examined in hippocampal slices from adult (12-24 weeks) rats.

Row | Substance | GluA1 surface expression, hexamer study [1] | GluA1 surface expression, agent alone (PTEN study) [1] | synaptic transmission after HFS in slices exposed to Aβ1-42 [2] | reduction of p-tau expression compared with Aβ1-42 alone [3] [%] | synaptic transmission [4] | synaptic transmission after HFS, Aβ peptide alone ([2]; control slices 127±3.4%, 40 min)
1 | SCSLPQTSGLQKPES (listed as Mus musculus) [leptin (116-130)] | increased GluA1 surface labelling | 167±10 % of control | 136±5.5 % of baseline | 58.9 ± 4.6 | 140±13 % of baseline | 
2 | CSLPQT (listed as Mus musculus) [leptin (117-122)] | 167±10 % of control |  |  | 45.48±6.1 |  | 
3 | SCSLPQ (listed as Mus musculus) [leptin (116-121)] | 146±9 % of control |  |  | 58.1±4.0 |  | 
4 | leptin (22-56): leptin fragment amino acids 22-56 (Bachem), comparison fragment (VPIQKVQDDTKTLIKTIVTRINDISHTQSVSSKQK; UniProt P41159 22-56, looked up, fragment) [reference compound] |  |  | 107±3.3 % of baseline |  | 99±2 % of baseline | 
5 | leptin: the metabolic hormone leptin, whole (full length) leptin molecule; human leptin from Sigma in SH-SY5Y work |  | 140±7.2 % of control | 135±6.3 % of baseline | 56.2±8.0 | 188±13 % of baseline | 
6 | Aβ1-42: amyloid beta 1-42, toxin used in the AD models [reference compound] |  |  |  |  |  | 96±7.5 % of baseline
